Measurements from patent US20050137807A1, “Method of visualization of the ADME properties of chemical substances” (priority 2003, published 2005).

Experiments:
[1] = membrane affinity as a measure of the lipophilicity (TRANSIL technology); assay type: physicochemical
human serum albumin = human serum albumin (Homo sapiens, UniProt P02768); test: binding constant to human serum albumin (TRANSIL technology)
Excerpt: The effective molecular weight (MW) is obtained simply from the respective empirical formula of the substance. The waters solubilities and the typical administered dosages of these commercially available products are furthermore known from the literature.
The ADME maps in FIGS. 5 to 10 show by way of example a selection of commercially available pharmaceutical substances. The substance names and the associated experimental measurement values for their physicochemical properties are summarised in Table 1.

[2] = log binding constant to human serum albumin, TRANSIL

Sequence of human serum albumin (P02768 25-609): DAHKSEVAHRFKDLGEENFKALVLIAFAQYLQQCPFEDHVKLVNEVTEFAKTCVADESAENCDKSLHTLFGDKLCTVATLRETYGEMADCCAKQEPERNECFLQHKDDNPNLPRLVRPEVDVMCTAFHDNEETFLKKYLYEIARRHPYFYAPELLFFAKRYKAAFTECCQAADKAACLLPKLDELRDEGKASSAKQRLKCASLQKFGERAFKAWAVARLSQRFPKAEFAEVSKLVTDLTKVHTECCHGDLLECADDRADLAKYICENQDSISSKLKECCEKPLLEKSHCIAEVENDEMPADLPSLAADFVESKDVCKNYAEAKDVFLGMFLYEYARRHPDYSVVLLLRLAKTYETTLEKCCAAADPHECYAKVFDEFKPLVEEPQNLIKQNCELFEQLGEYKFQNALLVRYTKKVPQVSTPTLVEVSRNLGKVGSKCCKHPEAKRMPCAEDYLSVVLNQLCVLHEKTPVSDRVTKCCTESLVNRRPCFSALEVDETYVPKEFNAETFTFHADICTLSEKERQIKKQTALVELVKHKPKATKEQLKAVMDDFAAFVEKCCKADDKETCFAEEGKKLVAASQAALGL

Row | Compound | LogMA [1] | LogHSA (human serum albumin; human) | LogHSA (human serum albumin; [2])
1 | CC(=O)Oc1ccccc1C(=O)O [Acetylsalicylic acid] | 0.301 | −3.097 | 
2 | Nc1nc2c(ncn2COCCO)c(=O)[nH]1 [Acyclovir] | −0.097 |  | 
3 | N=C(N)NC(=O)c1nc(Cl)c(N)nc1N [Amiloride] | 0.301 |  | 
4 | CCOC(=O)C1=C(COCCN)NC(C)=C(C(=O)OC)C1c1ccccc1Cl (stereo not shown) [Amlodipine] |  |  | −5.000
5 | CC1(C)S[C@@H]2[C@H](NC(=O)[C@H](N)c3ccc(O)cc3)C(=O)N2[C@H]1C(=O)O [Amoxicilin] | 0.778 |  | −2.301
6 | CC1(C)S[C@@H]2[C@H](NC(=O)[C@H](N)c3ccccc3)C(=O)N2[C@H]1C(=O)O [Ampicillin] | 1.114 |  | 
7 | Cc1cc(=O)n(-c2ccccc2)n1C [Antipyrine] | 1.146 |  | 
8 | CC(C)NCC(O)COc1ccc(CC(N)=O)cc1 (stereo not shown) [Atenolol] | 0.602 |  | 
9 | CC(C)NCC(O)COc1ccc(CCOCC2CC2)cc1 (stereo not shown) [Betaxolol] | 2.398 | −3.187 | 
10 | CCCCNc1cc(C(=O)O)cc(S(N)(=O)=O)c1Oc1ccccc1 [Bumetanide] | 2.279 | −5.076 | 
11 | C[C@H](CS)C(=O)N1CCC[C@H]1C(=O)O [Captopril] | 0.477 | −3.222 | 
12 | NC(=O)N1c2ccccc2C=Cc2ccccc21 [Carbamazepine] | 2.519 | −2.539 | 
13 | CC1=C(C(=O)O)N2C(=O)[C@@H](NC(=O)[C@H](N)c3ccc(O)cc3)[C@H]2SC1 [Cefadroxil] | 1.079 |  | 
14 | Cc1nnc(SCC2=C(C(=O)O)N3C(=O)[C@@H](NC(=O)Cn4cnnn4)[C@H]3SC2)s1 [Cefazolin] | 0.903 |  | −3.456
15 | CO[C@@]1(NC(=O)CSCC#N)C(=O)N2C(C(=O)O)=C(CSc3nnnn3C)CS[C@@H]21 [Cefmetazole] | 1.079 |  | 
16 | CCN1CCN(C(=O)N[C@@H](C(=O)N[C@@H]2C(=O)N3C(C(=O)O)=C(CSc4nnnn4C)CS[C@H]23)c2ccc(O)cc2)C(=O)C1=O [Cefoperazone] | 1.362 |  | 
17 | CO[C@@]1(NC(=O)Cc2cccs2)C(=O)N2C(C(=O)O)=C(COC(N)=O)CS[C@@H]21 [Cefoxitin] | 1.000 |  | 
18 | CC1=C(C(=O)O)N2C(=O)[C@@H](NC(=O)[C@H](N)c3ccccc3)[C@H]2SC1 [Cephalexine] | 0.778 |  | 
19 | CN(C)CCCN1c2ccccc2Sc2ccc(Cl)cc21 [Chlorpromazine] | 4.075 | −3.284 | 

Row | Compound | LogMA [1] | LogHSA (human serum albumin; human) | LogHSA (human serum albumin; [2])
20 | CN/C(=N/CCSCc1nc[nH]c1C)NC#N [Cimetidine] | 1.176 | −1.876 | 
21 | O=C(O)c1cn(C2CC2)c2cc(N3CCNCC3)c(F)cc2c1=O [Ciprofloxacin] | 0.954 |  | 
22 | Clc1cccc(Cl)c1N=C1NCCN1 [Clonidine] | 1.602 | −2.463 | 
23 | CN1CCN(C2=Nc3cc(Cl)ccc3Nc3ccccc32)CC1 [Clozapine] |  | −3.814 | 
24 | CN1C(=O)CN=C(c2ccccc2)c2cc(Cl)ccc21 [Diazepam] | 3.170 |  | 
25 | O=C(O)Cc1ccccc1Nc1c(Cl)cccc1Cl [Diclofenac] | 2.940 |  | 
26 | Cc1onc(-c2c(Cl)cccc2Cl)c1C(=O)N[C@@H]1C(=O)N2[C@@H]1SC(C)(C)[C@@H]2C(=O)O [Dicloxacillin] | 2.079 | −4.064 | 
27 | C[C@H]1O[C@@H](O[C@H]2[C@@H](O)C[C@H](O[C@H]3[C@@H](O)C[C@H](O[C@H]4CC[C@@]5(C)[C@H](CC[C@@H]6[C@@H]5C[C@@H](O)[C@]5(C)[C@@H](C7=CC(=O)OC7)CC[C@]65O)C4)O[C@@H]3C)O[C@@H]2C)C[C@H](O)[C@@H]1O [Digoxin] | 1.477 |  | −2.284
28 | COc1ccc([C@@H]2Sc3ccccc3N(CCN(C)C)C(=O)[C@@H]2OC(C)=O)cc1 [Diltiazem] | 2.544 |  | 
29 | CCOC(=O)[C@H](CCc1ccccc1)N[C@@H](C)C(=O)N1CCC[C@H]1C(=O)O [Enalapril] | 1.000 | −2.959 | 
30 | C[C@H](N[C@@H](CCc1ccccc1)C(=O)O)C(=O)N1CCC[C@H]1C(=O)O [Enalaprilate] | 0.176 |  | 
31 | COc1cc([C@@H]2c3cc4c(cc3[C@@H](O[C@@H]3O[C@@H]5CO[C@@H](C)O[C@H]5[C@H](O)[C@H]3O)[C@H]3COC(=O)[C@H]23)OCO4)cc(OC)c1O [Etoposide] | 2.000 |  | 
32 | CCOC(=O)C1=C(C)NC(C)=C(C(=O)OC)C1c1cccc(Cl)c1Cl (stereo not shown) [Felodipine] |  |  | −5.301
33 | CC(C)n1c(/C=C/C(O)CC(O)CC(=O)O)c(-c2ccc(F)cc2)c2ccccc21 (stereo not shown) [Fluvastatin] |  | −5.678 | 
34 | NS(=O)(=O)c1cc(C(=O)O)c(NCc2ccco2)cc1Cl [Furosemide] | 1.342 |  | 
35 | Nc1nc(O)c2ncn(COC(CO)CO)c2n1 [Ganciclovir] | −0.301 |  | 
36 | C[C@]12CCC(=O)C=C1CC[C@@H]1[C@@H]2[C@@H](O)C[C@@]2(C)[C@H]1CC[C@]2(O)C(=O)CO [Hydrocortisone] | 2.716 |  | 
37 | CC(C)Cc1ccc(C(C)C(=O)O)cc1 (stereo not shown) [Ibuprofen] | 1.778 |  | 
38 | COc1ccc2c(c1)c(CC(=O)O)c(C)n2C(=O)c1ccc(Cl)cc1 [Indomethacin] | 2.255 |  | 

Row | Compound | LogMA [1] | LogHSA (human serum albumin; human) | LogHSA (human serum albumin; [2])
39 | CC(C(=O)O)c1cccc(C(=O)c2ccccc2)c1 (stereo not shown) [Ketoprofen] | 1.505 |  | 
40 | CCN(CC)CC(=O)Nc1c(C)cccc1C [Lidocaine] | 1.771 |  | 
41 | NCCCC[C@H](N[C@@H](CCc1ccccc1)C(=O)O)C(=O)N1CCC[C@H]1C(=O)O [Lisinopril] | 0.845 |  | 
42 | C[C@H]1C[C@@H]2[C@H]([C@@H](O)C[C@@]3(C)[C@H]2CC[C@]3(O)C(=O)CO)[C@@]2(C)C=CC(=O)C=C12 [Methylprednisolone] |  | −3.000 | 
43 | COC(=O)C1=C(C)NC(C)=C(C(=O)OCCN(C)Cc2ccccc2)C1c1cccc([N+](=O)[O-])c1 (stereo not shown) [Nicardipine] |  | −5.000 | 
44 | COCCOC(=O)C1=C(C)NC(C)=C(C(=O)OC(C)C)C1c1cccc([N+](=O)[O-])c1 (stereo not shown) [Nimodipine] |  | −5.000 | 
45 | O=C1CN=C(c2ccccc2)c2cc(Cl)ccc2N1 [Nordiazepam] | 3.086 |  | 
46 | CCC1(c2ccccc2)C(=O)NC(=O)NC1=O [Phenobarbital] |  |  | −2.854
47 | CC(=O)Nc1ccc(OCC(O)CNC(C)C)cc1 (stereo not shown) [Practolol] | 1.301 |  | 
48 | COc1cc2nc(N3CCN(C(=O)c4ccco4)CC3)nc(N)c2cc1OC [Prazosin] | 2.544 |  | 
49 | C[C@]12C=CC(=O)C=C1CC[C@@H]1[C@@H]2[C@@H](O)C[C@@]2(C)[C@H]1CC[C@]2(O)C(=O)CO [Prednisolone] | 2.568 |  | 
50 | CCN(CC)CCNC(=O)c1ccc(N)cc1 [Procainamide] | 1.176 |  | 
51 | CNC(=C[N+](=O)[O-])NCCSCc1ccc(CN(C)C)o1 [Ranitidine] |  | −2.155 | 
52 | O=C(O)c1ccccc1O [Salicylic acid] | 0.602 |  | 
53 | CN1[C@@H]2C[C@@H](OC(=O)[C@H](CO)c3ccccc3)C[C@H]1[C@@H]1O[C@@H]12 [Scopolamine] | 1.462 |  | 
54 | O=C(O)c1cc(/N=N/c2ccc(S(=O)(=O)Nc3ccccn3)cc2)ccc1O [Sulfasalacine] | 2.748 |  | 
55 | CC(=O)CC(c1ccccc1)c1c(O)c2ccccc2oc1=O (stereo not shown) [Warfarin] | 1.505 |  | 
56 | Cc1cn([C@H]2C[C@H](N=[N+]=[N-])[C@@H](CO)O2)c(=O)[nH]c1=O [Zidovudine] | 0.903 |  | 
57 | Gentamicin | 0.000 |  | 
